Assay results: ChEMBL document CHEMBL1201862, “PubChem BioAssay data set” (2004)
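Five concentrations, 48 hours, 96-well plates. GI50 is the concentration that inhibits growth by half.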 Active and inactive are the calls of the source. No stated cut-off is given here; in the data, active = GI50 up to about 1.1 µM and inactive = higher.

How the values were obtained:
Assay in all cases: NCI-60 cell line screen, 48 h
CCRF-CEM = system: CCRF-CEM
RPMI-8226 = system: RPMI-8226
SF-295 = system: SF-295
IGROV-1 = system: IGROV-1
Hs-578T = system: Hs-578T
PC-3 = system: PC-3
SF-539 = system: SF-539
OVCAR-4 = system: OVCAR-4
OVCAR-5 = system: OVCAR-5
HOP-92 = system: HOP-92
TK-10 = system: TK-10
HCC 2998 = system: HCC 2998
OVCAR-8 = system: OVCAR-8
MDA-MB-435 = system: MDA-MB-435
MCF7 = system: MCF7
UACC-62 = system: UACC-62
SK-MEL-2 = system: SK-MEL-2
HT-29 = system: HT-29
CAKI-1 = system: CAKI-1
Malme-3M = system: Malme-3M

Measured: GI50

CC(C)(C)OC(=O)N(CCCN)CCCCN(CCCN)C(=O)OC(C)(C)C
inactive: CCRF-CEM > 100 µM | RPMI-8226 > 100 µM | SF-295 > 100 µM | IGROV-1 > 100 µM | Hs-578T > 100 µM | PC-3 > 100 µM | SF-539 > 100 µM | OVCAR-4 > 100 µM | OVCAR-5 > 100 µM | HOP-92 > 100 µM | TK-10 > 100 µM | HCC 2998 > 100 µM | OVCAR-8 > 100 µM | MDA-MB-435 > 100 µM | MCF7 > 100 µM | UACC-62 > 100 µM | SK-MEL-2 > 100 µM | HT-29 > 100 µM | CAKI-1 > 100 µM

O=C(N/N=C/C=C/c1ccccc1)c1ccccc1Nc1ccccc1C(=O)N/N=C/C=C/c1ccccc1
inactive: CCRF-CEM 12.5 µM | RPMI-8226 > 100 µM | SF-295 27.5 µM | IGROV-1 > 100 µM | Hs-578T 41.1 µM | PC-3 > 100 µM | OVCAR-4 67.9 µM | OVCAR-5 > 100 µM | Malme-3M > 100 µM | HOP-92 67 µM | TK-10 > 100 µM | HCC 2998 > 100 µM | OVCAR-8 > 100 µM | MDA-MB-435 > 100 µM | MCF7 > 100 µM | UACC-62 93.5 µM | SK-MEL-2 59.4 µM | HT-29 > 100 µM | CAKI-1 > 100 µM

Cc1nc2c(O)cc3c4c(=O)n(C)c(=O)n(C)c4n(Cc4ccccc4)c3c2nc1C
inactive: CCRF-CEM 4.99 µM | RPMI-8226 19.1 µM | SF-295 50.5 µM | Hs-578T 26.5 µM | PC-3 16.7 µM | SF-539 16 µM | OVCAR-4 11.1 µM | OVCAR-5 22.6 µM | Malme-3M 18.7 µM | HOP-92 13.8 µM | TK-10 17.6 µM | HCC 2998 22.7 µM | OVCAR-8 18.3 µM | MDA-MB-435 17.4 µM | MCF7 15.8 µM | UACC-62 18.2 µM | SK-MEL-2 18 µM | HT-29 15.8 µM

O=C1c2cc([N+](=O)[O-])cnc2S(=O)(=O)N1c1ccc(Oc2ccccc2)cc1
inactive: CCRF-CEM 39 µM | RPMI-8226 > 100 µM | SF-295 > 100 µM | IGROV-1 > 100 µM | Hs-578T > 100 µM | PC-3 > 100 µM | OVCAR-4 > 100 µM | OVCAR-5 > 100 µM | Malme-3M > 100 µM | HOP-92 > 100 µM | TK-10 > 100 µM | HCC 2998 > 100 µM | OVCAR-8 > 100 µM | MDA-MB-435 > 100 µM | MCF7 > 100 µM | UACC-62 > 100 µM | SK-MEL-2 > 100 µM

CC(=O)O[C@@H]1[C@H]2[C@@H](OC(=O)c3ccccc3)[C@@H](C)C[C@]2(O)[C@H](OC(C)=O)[C@@]2(C)[C@@H]3CC(C)(C)C(=O)[C@]3(OC(C)=O)C[C@@]12C
inactive: CCRF-CEM 1.92 µM | SF-295 7 µM | IGROV-1 > 25 µM | Hs-578T 9.53 µM | PC-3 17.7 µM | SF-539 13.2 µM | OVCAR-4 > 25 µM | OVCAR-5 > 25 µM | HOP-92 8.24 µM | TK-10 > 25 µM | HCC 2998 6.9 µM | OVCAR-8 20.6 µM | MDA-MB-435 13.8 µM | MCF7 > 25 µM | UACC-62 > 25 µM | SK-MEL-2 > 25 µM | CAKI-1 13.4 µM

COc1cc(C2SCC(=O)N2c2ccc(NC(C)=O)cc2)cc(OC)c1OC (stereo unspecified)
inactive: CCRF-CEM 25.9 µM | RPMI-8226 > 100 µM | SF-295 > 100 µM | IGROV-1 > 100 µM | Hs-578T > 100 µM | PC-3 > 100 µM | SF-539 > 100 µM | OVCAR-4 > 100 µM | OVCAR-5 > 100 µM | HOP-92 48.3 µM | TK-10 > 100 µM | HCC 2998 > 100 µM | OVCAR-8 77.1 µM | MDA-MB-435 52.7 µM | MCF7 51.3 µM | UACC-62 25.5 µM | SK-MEL-2 > 100 µM | HT-29 90.4 µM | CAKI-1 65.2 µM

COC(=O)C1OC(O[C@H]2CC[C@]3(C)[C@H]4CC=C5[C@@H]6CC(C)(C)CC[C@]6(C(=O)OC)[C@H](O)C[C@@]5(C)[C@]4(C)CC[C@H]3C2(C)C)C(O)C(O)C1O (stereo partly specified)
inactive: CCRF-CEM 3.1 µM | RPMI-8226 4.9 µM | SF-295 10.4 µM | IGROV-1 12.3 µM | Hs-578T 13.8 µM | PC-3 6.64 µM | OVCAR-4 5.68 µM | OVCAR-5 13.1 µM | Malme-3M 12.8 µM | HOP-92 16.8 µM | HCC 2998 2.7 µM | OVCAR-8 13.2 µM | MDA-MB-435 13.1 µM | MCF7 11 µM | UACC-62 12.5 µM | SK-MEL-2 15.1 µM | HT-29 3.21 µM | CAKI-1 14.2 µM

O=C1/C(=C/c2ccc(Cl)cc2)N=C(c2ccccc2)N1c1nc2ccccc2s1
inactive: CCRF-CEM 47.1 µM | RPMI-8226 39.7 µM | SF-295 40.4 µM | IGROV-1 34.4 µM | Hs-578T 20 µM | PC-3 29.9 µM | SF-539 > 100 µM | OVCAR-4 53.1 µM | OVCAR-5 > 100 µM | HOP-92 66.4 µM | TK-10 56.2 µM | HCC 2998 42.7 µM | OVCAR-8 59.4 µM | MDA-MB-435 53 µM | MCF7 40.1 µM | SK-MEL-2 28.3 µM | HT-29 64.1 µM | CAKI-1 58.9 µM

NCCCCNCCCNC(=O)c1csc(-c2nc(CCN)sc2Cl)n1
inactive: CCRF-CEM > 100 µM | RPMI-8226 > 100 µM | SF-295 > 100 µM | IGROV-1 > 100 µM | Hs-578T > 100 µM | PC-3 > 100 µM | SF-539 > 100 µM | OVCAR-5 > 100 µM | Malme-3M > 100 µM | HOP-92 8.85 µM | TK-10 > 100 µM | HCC 2998 70.8 µM | OVCAR-8 > 100 µM | MDA-MB-435 > 100 µM | MCF7 > 100 µM | UACC-62 > 100 µM | HT-29 > 100 µM

O=c1nc(Oc2c(F)c(F)c(F)c(F)c2F)ccn1C1OC(CO)C(O)C1O (stereo unspecified)
inactive: CCRF-CEM > 100 µM | RPMI-8226 > 100 µM | SF-295 > 100 µM | IGROV-1 > 100 µM | Hs-578T > 100 µM | PC-3 > 100 µM | SF-539 > 100 µM | OVCAR-4 > 100 µM | OVCAR-5 > 100 µM | HOP-92 > 100 µM | TK-10 > 100 µM | HCC 2998 > 100 µM | OVCAR-8 > 100 µM | MDA-MB-435 > 100 µM | MCF7 > 100 µM | UACC-62 > 100 µM | SK-MEL-2 > 100 µM | HT-29 > 100 µM | CAKI-1 > 100 µM
